Here are results for 27 compounds from PMC10808981, “Synthesis and structure–activity relationships of aryl fluorosulfate-based inhibitors as novel antitubercular agents” (Bioorganic & Medicinal Chemistry Letters, 2024).

In series [1] the test system is Mtb H37Rv. Briefly: MIC determination in Mtb H37Rv, Microdilution Alamar Blue Assay (MABA). The following applies: for MIC: Mtb H37Rv, MABA, 7 days. Type of series: cell-based, Mycobacterium tuberculosis. (In general: In broth dilution the organism is exposed to a series of concentrations in liquid medium.)
The nature of series [2]: HEK293T cytotoxicity assay (Cell Titer-Glo). Type of series: cell-based. The following applies: human, HEK293T cells; HEK293T, 3 days. Here is the method:
HEK293T (ATCC) were grown in DMEM (Gibco Cat # 11965-092) supplemented with 10% heat-inactivated FBS, Pen Strep (Gibco) 1X in a 5% CO2 humidified atmosphere at 37◦C. Cells were washed once with DPBS 1X (Gibco), incubated for less than 5 minutes at room temperature in TrypLE solution (Gibco), washed once in propagation medium to remove trypsin, and counted with Trypan Blue. 5 µL of cell suspension ([…]) was dispensed into 1536-well plates containing serial 3-fold drug dilution ranging from 40 µM to 2 nM and incubated for 3 days in a 5% CO2 humidified atmosphere at 37 ◦C. Cell Titer-Glo® Luminescent Cell Viability Assay (Promega) reagent was diluted 1:1 with water and then 2 µL were added to plates. Luminescence was measured in a PHERAStar plate reader (BMG Labtech) and data normalized to negative control (DMSO) minus inhibitor (Puromycin 10 µM). Dose-response curves were fit using the Smart Fit function in Genedata Screener Analyzer (v16.0.8).
Background: In ATP-based viability assays light output follows the ATP content of the culture.

Series [3] in a line: in vitro. Particulars: human.
[4] abbreviates: Mycobacterium tuberculosis, H37RV, 168 h.

Structures are written as SMILES. In brackets after ≈: the same amount, converted by molar mass.

The compound `O=S(=O)(F)Oc1ccc(OCc2cc(F)c(-n3cncn3)c(F)c2)cc1` [Compound 3 g, 4-((3,5-difluoro-4-(1H-1,2,4-triazol-1-yl)benzyl)oxy)phenyl sulfurofluoridate] registered a minimum inhibitory concentration (MIC) in series [1] (setting [4]) of 10 µM (≈ 3.85 µg/mL). The compound further displayed a CC50 at 72 h in series [2] of 34.8 µM. The CC50 in series [3] is greater than 40 µM.

In series [1] (setting [4]), `O=S(=O)(F)Oc1ccc(OCc2cc(F)c(-n3cncn3)cc2F)cc1` [Compound 3 h, 4-((2,5-difluoro-4-(1H-1,2,4-triazol-1-yl)benzyl)oxy)phenyl sulfurofluoridate] yielded an MIC of 1.25 µM (≈ 0.482 µg/mL). Also, the CC50 at 72 h in series [2] turned out to be 21.6 µM; in series [3], 29.5 µM.

In the case of `O=S(=O)(F)Oc1ccc(OCc2c(F)cc(-n3nccn3)cc2F)cc1` [Compound 3 k, 4-((2,6-difluoro-4-(2H-1,2,3-triazol-2-yl)benzyl)oxy)phenyl sulfurofluoridate], the MIC in series [1] (setting [4]) was determined as 1.23 µM (≈ 0.474 µg/mL). Further, in series [2], the CC50 at 3 days was greater than 40 µM. For the same compound, the CC50 in series [3] was greater than 40 µM.

Regarding `O=S(=O)(F)Oc1ccc(OCc2c(F)cc(-n3ccnn3)cc2F)cc1` [Compound 3 l, 4-((2,6-difluoro-4-(1H-1,2,3-triazol-1-yl)benzyl)oxy)phenyl sulfurofluoridate], the MIC in series [1] (setting [4]) is 0.16 µM (≈ 0.0617 µg/mL). In addition, the values for the CC50 at 72 h in series [2] and in series [3] were 27.7 µM and 17 µM, respectively.

Compound `O=S(=O)(F)Oc1ccc(OCc2ccc(-n3cncn3)c(F)c2)cc1` [Compound 3e, 4-((3-fluoro-4-(1H-1,2,4-triazol-1-yl)benzyl)oxy)phenyl sulfurofluoridate] came in with an MIC in series [1] (setting [4]) of 2.5 µM (≈ 0.918 µg/mL). In addition, the values for the CC50 at 72 h in series [2] and in series [3] were 16.8 µM and 17.6 µM, respectively.

In the case of `O=S(=O)(F)Oc1ccc(OCc2ccc(-n3cncn3)c(F)c2F)cc1` [Compound 3f, 4-((2,3-difluoro-4-(1H-1,2,4-triazol-1-yl)benzyl)oxy)phenyl sulfurofluoridate], the MIC in series [1] (setting [4]) is 1.25 µM (≈ 0.482 µg/mL). Besides, the results for the CC50 at 72 h in series [2] and in series [3] were 18.8 µM and 22.4 µM, respectively.

Regarding `N#Cc1cc(-n2cncn2)cc(F)c1COc1ccc(OS(=O)(=O)F)cc1` [Compound 3j, 4-((2-cyano-6-fluoro-4-(1H-1,2,4-triazol-1-yl)benzyl)oxy)phenyl sulfurofluoridate], the minimal inhibitory concentration (MIC) in series [1] and in series [1] (setting [4]) was 5 µM (≈ 1.96 µg/mL) throughout. For the same compound, in series [2], the CC50 at 3 days was greater than 40 µM. In addition, in series [3], the CC50 was greater than 40 µM.

`O=S(=O)(F)Oc1ccc(OCc2c(F)cc(-n3cnnn3)cc2F)cc1` [Compound 19 g, 4-((2,6-difluoro-4-(1H-tetrazol-1-yl)benzyl)oxy)phenyl sulfurofluoridate] displayed a minimum inhibitory concentration (MIC) in series [1] (setting [4]) of 0.45 µM (≈ 0.174 µg/mL). The CC50 at 72 h in series [2] turned out to be 13.2 µM; in series [3] it was 12.1 µM.

On to `O=S(=O)(F)Oc1ccc(OCc2c(F)cc(-c3nnn[nH]3)cc2F)cc1` [Compound 19 h, 4-((2,6-difluoro-4-(1H-tetrazol-5-yl)benzyl)oxy)phenyl sulfurofluoridate], for which it took 5 µM (≈ 1.93 µg/mL) to inhibit growth in series [1] (setting [4]) (MIC). In addition, the CC50 at 3 days in series [2] is greater than 40 µM. Moreover, the CC50 in series [3] was greater than 40 µM.

`O=S(=O)(F)Oc1ccc(OCc2c(F)cc(-c3nnc[nH]3)cc2F)cc1` [Compound 19a, 4-((2,6-difluoro-4-(1H-1,2,4-triazol-3-yl)benzyl)oxy)phenylsulfurofluoridate]: the minimum inhibitory concentration (MIC) in series [1] is 0.9 µM (≈ 0.347 µg/mL); in series [1] (setting [4]), less than 1 µM. Moreover, the CC50 at 72 h stood at 14.7 µM in series [2] and 19.3 µM in series [3].

Turning to `Cn1cnc(-c2cc(F)c(COc3ccc(OS(=O)(=O)F)cc3)c(F)c2)n1` [Compound 19b, 4-((2,6-difluoro-4-(1-methyl-1H-1,2,4-triazol-3-yl)benzyl)oxy)phenyl sulfurofluoridate], in series [1] (setting [4]), the MIC is 1.25 µM (≈ 0.499 µg/mL). The same compound gave a CC50 in series [3] greater than 40 µM.

The compound `O=S(=O)(F)Oc1ccc(OCc2c(F)cc(-c3ccn[nH]3)cc2F)cc1` [Compound 19c, 4-((2,6-difluoro-4-(1H-pyrazol-5-yl)benzyl)oxy)phenyl sulfurofluoridate] returned an MIC in series [1] (setting [4]) of 0.84 µM (≈ 0.323 µg/mL). The CC50 at 72 h stood at 31.7 µM in series [2] and 18.5 µM in series [3].

In series [1] (setting [4]), `O=S(=O)(F)Oc1ccc(OCc2c(F)cc(-c3ncc[nH]3)cc2F)cc1` [Compound 19d, 4-((2,6-difluoro-4-(1H-imidazol-2-yl)benzyl)oxy)phenyl sulfurofluoridate] yielded an MIC of 0.3 µM (≈ 0.115 µg/mL). In series [2], this compound gave a CC50 at 3 days greater than 40 µM. The compound also returned a CC50 at 72 h in series [3] of 30.1 µM.

`Cn1ccnc1-c1cc(F)c(COc2ccc(OS(=O)(=O)F)cc2)c(F)c1` [Compound 19e, 4-((2,6-difluoro-4-(1-methyl-1H-imidazol-2-yl)benzyl)oxy)phenyl sulfurofluoridate] returned a minimal inhibitory concentration (MIC) in series [1] (setting [4]) of 1.25 µM (≈ 0.498 µg/mL). The CC50 at 72 h was found to be 26 µM in series [2] and 13.7 µM in series [3].

On to `O=S(=O)(F)Oc1ccc(OCc2c(F)cc(-n3ccnc3)cc2F)cc1` [Compound 19f, 4-((2,6-difluoro-4-(1H-imidazol-1-yl)benzyl)oxy)phenyl sulfurofluoridate], for which the minimum inhibitory concentration (MIC) in series [1] (setting [4]) was 0.37 µM (≈ 0.142 µg/mL). In series [2], this compound displayed a CC50 at 72 h of 9.65 µM and a CC50 at 3 days of less than 10 µM. In series [3], this compound gave a CC50 of less than 10 µM and a CC50 at 72 h of 8.63 µM.

In the case of `O=S(=O)(F)Oc1ccc(OCc2c(F)cc(-c3ncon3)cc2F)cc1` [Compound 19i, 4-((2,6-difluoro-4-(1,2,4-oxadiazol-3-yl)benzyl)oxy)phenyl sulfurofluoridate], the MIC in series [1] was 0.62 µM (≈ 0.24 µg/mL); in series [1] (setting [4]), less than 1 µM. In series [2], the CC50 at 3 days was greater than 40 µM. In series [3], this compound registered a CC50 greater than 40 µM.

Consider `O=S(=O)(F)Oc1ccc(OCc2c(F)cc(-c3cnoc3)cc2F)cc1` [Compound 19j, 4-((2,6-difluoro-4-(isoxazol-4-yl)benzyl)oxy)phenyl sulfurofluoridate], for which the MIC in series [1] is 0.78 µM (≈ 0.301 µg/mL); in series [1] (setting [4]) it was less than 1 µM. Further, the CC50 at 72 h in series [2] worked out at 23.8 µM; in series [3], 6.99 µM.

`N#Cc1ncn(-c2cc(F)c(COc3ccc(OS(=O)(=O)F)cc3)c(F)c2)n1` [Compound 20 g, 4-((4-(3-cyano-1H-1,2,4-triazol-1-yl)-2,6-difluorobenzyl)oxy)phenyl sulfurofluoridate] displayed a minimal inhibitory concentration (MIC) in series [1] (setting [4]) of 0.45 µM (≈ 0.185 µg/mL). The same compound gave a CC50 at 72 h in series [3] of 10.3 µM.

In series [1] (setting [4]), `NC(=O)c1ncn(-c2cc(F)c(COc3ccc(OS(=O)(=O)F)cc3)c(F)c2)n1` [Compound 20 k, 4-((4-(3-carbamoyl-1H-1,2,4-triazol-1-yl)-2,6-difluorobenzyl)oxy)phenyl sulfurofluoridate] gave an MIC of 0.17 µM (≈ 0.0728 µg/mL). In series [2], the CC50 at 3 days was greater than 40 µM. For the same compound, the CC50 in series [3] was greater than 40 µM.

Consider `NS(=O)(=O)c1ncn(-c2cc(F)c(COc3ccc(OS(=O)(=O)F)cc3)c(F)c2)n1` [Compound 20 l, 4-((2,6-difluoro-4-(3-sulfamoyl-1H-1,2,4-triazol-1-yl)benzyl)oxy)phenyl sulfurofluoridate], for which, in series [1] (setting [4]), 0.47 µM (≈ 0.218 µg/mL) was the least that counted as inhibitory (MIC). In series [3], this compound gave a CC50 greater than 40 µM.

With `Cc1ncn(-c2cc(F)c(COc3ccc(OS(=O)(=O)F)cc3)c(F)c2)n1` [Compound 20a, 4-((2,6-difluoro-4-(3-methyl-1H-1,2,4-triazol-1-yl)benzyl)oxy)phenyl sulfurofluoridate], the MIC in series [1] (setting [4]) was found to be 0.3 µM (≈ 0.12 µg/mL). Also, the CC50 at 72 h in series [2] was 17.1 µM; in series [3] it was 16.3 µM.

Take `CCc1ncn(-c2cc(F)c(COc3ccc(OS(=O)(=O)F)cc3)c(F)c2)n1` [Compound 20b, 4-((4-(3-ethyl-1H-1,2,4-triazol-1-yl)-2,6-difluorobenzyl)oxy)phenyl sulfurofluoridate]: it took 0.6 µM (≈ 0.248 µg/mL) to inhibit growth in series [1] (setting [4]) (MIC). Moreover, the CC50 at 3 days in series [2] is greater than 40 µM. The compound also came in with a CC50 at 72 h in series [3] of 5.8 µM.

Take `CC(C)c1ncn(-c2cc(F)c(COc3ccc(OS(=O)(=O)F)cc3)c(F)c2)n1` [Compound 20c, 4-((2,6-difluoro-4-(3-isopropyl-1H-1,2,4-triazol-1-yl)benzyl)oxy)phenyl sulfurofluoridate]: in series [1] (setting [4]), the MIC amounted to 0.6 µM (≈ 0.256 µg/mL). The CC50 at 72 h came out at 16.7 µM in series [2] and 12.4 µM in series [3].

Take `CC(C)(C)c1ncn(-c2cc(F)c(COc3ccc(OS(=O)(=O)F)cc3)c(F)c2)n1` [Compound 20d, 4-((4-(3-(tert-butyl)-1H-1,2,4-triazol-1-yl)-2,6-difluorobenzyl)oxy)phenyl sulfurofluoridate]: the minimal inhibitory concentration (MIC) in series [1] (setting [4]) was determined as 1.2 µM (≈ 0.53 µg/mL). For the same compound, the figures for the CC50 at 72 h in series [2] and in series [3] were 13.7 µM and 6.9 µM, respectively.

For `CS(=O)(=O)Nc1ncn(-c2cc(F)c(COc3ccc(O)cc3)c(F)c2)n1` [Compound 21 g], in series [1], the “anti-TB activity against Mtb (in words)” value was “no activity” and the minimal inhibitory concentration (MIC) was greater than 10 µM.

In series [1] (setting [4]), `CN(c1ncn(-c2cc(F)c(COc3ccc(OS(=O)(=O)F)cc3)c(F)c2)n1)S(C)(=O)=O` [Compound 21c, 4-((2,6-difluoro-4-(3-(N-methylmethylsulfonamido)-1H-1,2,4-triazol-1-yl)benzyl)oxy)phenyl sulfurofluoridate] displayed an MIC of 0.31 µM (≈ 0.153 µg/mL). The compound further gave a CC50 at 72 h in series [3] of 15.3 µM.

Compound `CCS(=O)(=O)Nc1ncn(-c2cc(F)c(COc3ccc(OS(=O)(=O)F)cc3)c(F)c2)n1` [Compound 21d, 4-((4-(3-(ethylsulfonamido)-1H-1,2,4-triazol-1-yl)-2,6-difluorobenzyl)oxy)phenyl sulfurofluoridate] came in with an MIC in series [1] (setting [4]) of 0.08 µM (≈ 0.0394 µg/mL). The same compound gave a CC50 in series [3] greater than 40 µM.

The term MIC denotes the lowest concentration found to suppress growth. Higher therefore signals a need for much substance.
